# What was measured:
# liver cancer in rats [1] = experiment: Experiment 3: depression of liver cancer induced by 3'-Me-DAB in rats; format: in vivo, Wister male rats
# Excerpt: The present inventor asked Prof. Nobuhiko Kanno, Biological Laboratory, Dept. of Pharmacology, Toyama Medical and Pharmacologival University, to test the activity of the present antiviral substance to depress the liver cancer in rats on pathogens of viruses.
# 1. Test animals: Wister male rats of 4 weeks of age were fed for 5 days as usual and tested.
# 2. Carcinogenic substance: 3'-methyl-4-dimethyl amino azobenzene (3'-Me-DAB) [drawing 1]
# (1) Control group: standard food
# (2) L group: standard food+L
# (3) L+DAB group 0.06% 3'-Me-DAB containing food+L
# (4) DAB group 0.06% 3'-Me-DAB containing food
# Note: L: a frozen dry powder of the extract of the nutrient medium and tissue-medium of Lentinus edodes DAB: 3'-Me-DAB
# 4. Quantity and the method of giving the freeze-dried powder of the extract of the nutrient medium and tissue-medium of Lentinus edodes […]
# The freeze-dried powder of the nutrient medium and tissue-medium of Lentinus edodes was dissolved in physiological salt water, and given intraperitoneally; the same dose of physiological salt water was similarly given to the control group.
# liver cancer in rats [2] = details: rat's liver; cited from earlier work
smiles,measurement,setting,value
"Cc1cccc(N=Nc2ccc(N(C)C)cc2)c1 [3'-Me-DAB, 3'-methyl-4-dimethyl amino azobenzene]",liver finding at autopsy,"liver cancer in rats [1]; dissection, after 14 and 18 weeks",fine yellowish white particles which seemed to be cancerous tissue were seen all over the liver
same,microscopic findings of the liver tissue,liver cancer in rats [1]; hematoxin-eosin,severe disarrangement of cells and the glandular structure specific to liver cancer (adeno carcinoma)
same,depilation,"liver cancer in rats [1]; microscopic observation, within about 5 and 15 weeks",depilation appeared on the abdomen in some a rats
same,carcinogenic property,liver cancer in rats [2],specific and strong carcinogenic property

# From patent US4629627A, “Antiviral substance and the manufacturing method thereof” (priority 1978, dated 1986)
